# From patent US6136845A (The Texas A&M University System, priority 1998, dated 2000)
# Columns and labels:
# [1] = test system: mammary tumors; assay: DMBA-induced rat mammary tumor model, tumor volume and weight; format: in vivo, Sprague-Dawley rat; details: 20 days
# Method: Female virgin Sprague-Dawley rats were obtained from Harlan (Houston) and were allowed to acclimate for 10 days, allowed access to food and water ad libitum, and maintained on a 12 h light/dark schedule. Mammary tumors were induced in 50±3 day old-rats by administering a single gavage dose of 20 mg DMBA in 0.5 ml corn oil. […] Tumor sizes were measured with calipers, and volumes were calculated by formula (length×width×depth)/6π and are expressed as percent control. […] All tumors were removed, weighed, and sectioned. One portion was frozen in liquid nitrogen for PCR analysis; one portion was placed in 10% formalin for histopathological analysis; and the majority was immediately homogenized for the preparation of microsomal and cytosolic fractions. Livers were perfused and weighed, and cytosol and microsomes were prepared as previously described.
# [2] = test system: hepatic CYP1A1-dependent EROD activity; assay: Hepatic EROD activity in DMBA-treated rats; details: 0.4 mg/kg/day each
# Method: (§1) Female virgin Sprague-Dawley rats were obtained from Harlan (Houston) and were allowed to acclimate for 10 days, allowed access to food and water ad libitum, and maintained on a 12 h light/dark schedule. Mammary tumors were induced in 50±3 day old-rats by administering a single gavage dose of 20 mg DMBA in 0.5 ml corn oil. […] Tumor sizes were measured with calipers, and volumes were calculated by formula (length×width×depth)/6π and are expressed as percent control. One week after their last injection, rats were euthanized by asphyxiation. All tumors were removed, weighed, and sectioned. One portion was frozen in liquid nitrogen for PCR analysis; one portion was placed in 10% formalin for histopathological analysis; and the majority was immediately homogenized for the preparation of microsomal and cytosolic fractions. Livers were perfused and weighed, and cytosol and microsomes were prepared as previously described.
# [3] = Body and organ weights in DMBA-treated rats
# Method: as §1
# [4] = test system: femurs; assay: Bone effects in ovariectomized rats (femur weight and length); format: in vivo, Sprague-Dawley rat; details: tamoxifen 0.4, 6-MCDF 0.8 mg/kg/day oral, 20 days
# Method: The ovariectomized rat is used as a model for osteoporosis.
# Rats were euthanized on day 21. After uteri were excised and processed, both left and right femurs were excised and the length measured with calipers. […] Wet weight was measured after residual connective tissue was stripped away. Dry weight was measured after the bones were dried for 12 ours at 130° C.
# [5] = test system: uterus; assay: Uterine wet weight in ovariectomized rats (Example 4); format: in vivo, Sprague-Dawley rat; details: 0.4 mg/kg/day each oral, 20 days
# Excerpt: (§3) Methods: Rats were ovariectomized at 97 days of age, and treatments began at 117 days of age. […] Rats were euthanized on day 21.
# [6] = test system: uterine peroxidase; assay: Uterine peroxidase assay in ovariectomized rats (Example 4); format: in vivo, Sprague-Dawley rat; details: 0.4 mg/kg/day each oral, 20 days
# Excerpt: (§2) Rats were euthanized on day 21.
# [7] = test system: uterine cytosolic PR; assay: Uterine cytosolic PR levels in ovariectomized rats (Example 4); format: in vivo, Sprague-Dawley rat; details: 0.4 mg/kg/day each oral, 20 days
# Excerpt: as §2
# [8] = test system: uterus; assay: Uterine wet weight in ovariectomized rats (Example 6, Table 6); format: in vivo, Sprague-Dawley rat; details: tamoxifen 0.4, 6-MCDF 0.8 mg/kg/day oral, 20 days
# Excerpt: as §2
# [9] = test system: uterine peroxidase; assay: Uterine peroxidase activity in ovariectomized rats (Example 6, Table 6); format: in vivo, Sprague-Dawley rat; details: tamoxifen 0.4, 6-MCDF 0.8 mg/kg/day oral, 20 days
# Excerpt: as §2
# [10] = test system: uterine progesterone receptor; assay: Uterine progesterone receptor in ovariectomized rats (Example 6, Table 6); format: in vivo, Sprague-Dawley rat; details: tamoxifen 0.4, 6-MCDF 0.8 mg/kg/day oral, 20 days
# Excerpt: as §2
# [11] = test system: Ah receptor; details: result in words; cited from earlier work
# [12] = test system: ER; details: 21 to 25 day-old female Sprague-Dawley rat uterus; cited from earlier work
# [13] = test system: PR; details: 21 to 25 day-old female Sprague-Dawley rat uterus; cited from earlier work
# [14] = test system: rat uterus; details: cited from earlier work
# [15] = test system: mammary tumor; details: cited from earlier work
# [16] = cited from earlier work
# [17] = test system: CYP1A1; details: cited from earlier work
# [18] = test system: liver; details: result in words; cited from earlier work
# [19] = test system: CYP1A1; details: result in words; cited from earlier work
# [20] = Body and organ weights (Examples 4 and 5)
# Method: as §3
# For the control vehicle and the MCDF vehicle ethanol was added (5% v/v) and then evaporated away.
# [21] = Body and organ weights (Example 6, Table 7)
# Method: For Table 7 and FIGS. 3 and 3B, exact aged virgin female Sprague-Dawley rats were dosed on day 55 in the afternoon with 20 mg/rat 7,12-dimethylbenz[a]anthacene in a volume of 0.5 ml/rat corn oil (rats weigh approximately 165 g, resulting in 120 mg/kg DMBA and 3 ml/kg corn oil).
# [22] = each drug 0.4 mg/kg/day by gavage, DMBA rats
smiles,measurement,setting,value
"Cc1cc(Cl)cc2c1oc1cc(Cl)cc(Cl)c12 [6-MCDF, 6-methyl-1,3,8-trichlorodibenzofuran]",Tumor Weight,"[1]; 0.4 mg/kg/day each, control 3.82 ± 1.18",1.68 ± 0.53 g
same,Tumor Wt (% Control),"[1]; 0.4 mg/kg/day each, control 100 ± 27.7",43.9 ± 12.8 % Control
same,Final Tumor Volume (% Control),"[1]; 0.4 mg/kg/day each, control 100 ± 31.5",33.6 ± 11.2 % Control
same,Final Tumor Volume,"[1]; 0.4 mg/kg/day each, control 2734 ± 956",918 ± 305 mm^3
same,% Inhibition tumor volume,[1]; [22],66.4%
same,% Inhibition tumor weight,[1]; [22],NS decrease
same,EROD activity,"[2]; 20 days, control 118 ± 40",140 ± 32 pmol/mg/min
same,induction of hepatic EROD activity,[2]; result in words,did not induce
same,Uterine Wt.,"[3]; 0.4 mg/kg/day each, 20 days, control 0.212 ± 0.017",0.230 ± 0.037 % BW
same,Spleen Wt.,"[3]; 0.4 mg/kg/day each, 20 days, control 0.257 ± .022",0.255 ± 0.017 % BW
same,Kidney weight,"[3]; 0.4 mg/kg/day each, 20 days, control 0.349 ± 0.007",0.361 ± 0.016 % BW
same,Liver weight,"[3]; 0.4 mg/kg/day each, 20 days, control 3.13 ± 0.12",3.49 ± 0.16 % BW
same,Final Body Weight,"[3]; 0.4 mg/kg/day each, 20 days, control 250 ± 5",247 ± 4 g
same,Heart weight,"[3]; rat, in vivo",0.405 ± 0.10 % BW
same,Dry bone weight,[4]; control 0.180 ± 0.005,0.183 ± 0.003 % body weight
same,Wet bone weight,[4]; control 0.347 ± 0.009,0.341 ± 0.008 % body weight
same,Bone length index,[4]; control 12.1 ± 0.4,12.17 ± 0.3 mm/body weight × 100
same,Uterine Wet Weight (% body wt),[5]; control 0.045 ± 0.002,0.060 ± 0.006 % body wt
same,Uterine Wet Weight,[5]; control 0.131 ± 0.006,0.180 ± 0.019 g
same,Uterine Peroxidase Assay (Abs/g uterus),[6]; per g uterus,1.14 ± 0.02 Fold Increase over Control
same,Uterine Peroxidase Assay (Abs/mg protein),[6]; per mg protein,1.05 ± 0.02 Fold Increase over Control
same,Uterine Peroxidase Assay (Abs/uterus),[6]; per uterus,1.56 ± 0.03 Fold Increase over Control
same,Uterine cytosolic PR levels (fmol/mg protein),[7]; control 308 ± 142,338 ± 31 fmol/mg protein
same,Uterine cytosolic PR levels (fmol/uterus),[7]; control 1100 ± 508,1925 ± 177 fmol/uterus
same,Uterine cytosolic PR levels (fmol/g uterus),[7]; control 8368 ± 3868,10693 ± 986 fmol/g uterus
same,Uterine wet weight (% body weight),[8]; control 0.0583 ± 0.0055,0.0454 % body weight
same,Uterine wet weight,[8]; control 0.171 ± 0.15,0.131 g
same,Uterine Peroxidase Activity (Absorbance/g uterus),[9]; per g uterus,0.88 ± 0.01 Fold Increase over control
same,Uterine Peroxidase Activity (Absorbance/mg protein),[9]; per mg protein,0.99 ± 0.01 Fold Increase over control
same,Uterine Peroxidase Activity (Absorbance/uterus),[9]; per uterus,0.57 ± 0.01 Fold Increase over control
same,Uterine Progesterone Receptor (fmol/mg protein),[10]; control 198 ± 15,152.9 ± 35 fmol/mg protein
same,Uterine Progesterone Receptor (fmol/uterus),[10]; control 765 ± 69,441.5 ± 100 fmol/uterus
same,Uterine Progesterone Receptor (fmol/g uterus),[10]; control 4462 ± 343,3985 ± 907 fmol/g uterus
same,binding to the Ah receptor,[11],bound to the Ah receptor
same,nuclear and cytosolic ER binding,[12],dose-dependent decrease
same,nuclear and cytosolic progesterone receptor (PR) binding,[13],dose-dependent decrease
same,"E2-induced hypertrophy, peroxidase activity, cytosolic ER and PR binding, EGF receptor and c-fos mRNA levels",[14]; rat uterus,inhibited
same,effect on TCDD-induced antiestrogenic activity,[14]; rat uterus,did not inhibit
same,antiestrogenicity in the rat uterus,[14]; result in words,antiestrogen in the rat uterus
same,growth inhibition,[15]; 5 mg/kg/wk,> 50%
same,mammary tumor growth,"[15]; 5, 10 or 25 mg/kg/wk, result in words",significantly inhibited
same,effect on TCDD induced toxic responses,[16]; co-treatment with TCDD,inhibiter TCDD induced toxic responses
same,toxicity,[16]; result in words,minimal toxicity
same,potency as inducer of hepatic CYP1A1 relative to TCDD (times less potent),"[17]; less potent than TCDD, same animals","> 157,000 times"
same,induction of CYP1A1,[17]; result in words,weak inducer of CYP1A1
same,liver morphology,[18],not accompanied by any significant changes
same,liver/body weight ratios,[18],not accompanied by any significant changes
same,induction of hepatic CYP1A1-dependent activity,[19],not accompanied by any significant changes
same,splenic wet weight,"[20]; 0.4 mg/kg/day oral, 20 days, ovariectomized rats, result in words",slight but significant increase
same,Rat weight at start of treatments,"[20]; Table 5, baseline, control 273.1 ± 8.1",274.7 ± 7.0 g
same,Spleen wet weight (% body wt),"[20]; Table 5, control 0.247 ± 0.007",0.298 ± 0.015 % body wt
same,kidney weight (% body wt),"[20]; Table 5, control 0.318 ± 0.010",0.332 ± .004 % body wt
same,Heart weight (% body wt),"[20]; Table 5, control 0.319 ± 0.006",0.344 ± 0.014 % body wt
same,Spleen wet weight,"[20]; Table 5, control 0.72O ± 0.012",0.887 ± 0.043 g
same,Kidney weight,"[20]; Table 5, control 0.933 ± 0.038",0.991 ± 0.026 g
same,Heart weight,"[20]; Table 5, control 0.935 ± 0.039",1.024 ± 0.037 g
same,Liver weight (% body wt),"[20]; Table 5, control 4.06 ± 0.23",4.37 ± 0.26 % body wt
same,Liver weight,"[20]; Table 5, control 11.88 ± 0.78",13.04 ± 0.87 g
same,Rat weight prior to euthanasia,"[20]; Table 5, control 293.2 ± 10.9",298.3 ± 5.0 g
same,Rat weight at start of treatments,"[21]; Table 7, baseline, control 255 ± 3",257 ± 4 g
same,Spleen weight (% body weight),"[21]; Table 7, control 0.289 ± 0.018",0.265 ± 0.014 % body weight
same,Kidney weight (% body weight),"[21]; Table 7, control 0.334 ± 0.010",0.352 ± 0.015 % body weight
same,Heart weight (% body weight),"[21]; Table 7, control 0.360 ± 0.010",0.356 ± 0.012 % body weight
same,Rat weight prior to euthanasia,"[21]; Table 7, control 295 ± 11",289 ± 7 g
